Experimental data published in patent US4112073A, “Medicinal composition comprising adrenal cortical hormone and thyroid stimulating hormone releasing hormone” (Takeda Chemical Industries, Ltd., priority 1975, dated 1978).
“Also recorded” adds a separate entry of the source.

Tests used:
[1] = relative clinical effect of ACH; cited from earlier work
[2] = Relative clinical effect of ACH (dexamethasone equivalent); conditions: for Equivalent (dexamethasone equivalent): dexamethasone taken as unity
Excerpt: The relative amounts of ACH and TSH-releasing hormones may be determined according to the particular dosage form, the disease to be treated and other factors. Generally speaking, the ratio is about 1 (dexamethasone equivalent): 0.05 to 5, advantageously 0.05 to 2, and especially 0.1 to 1. The preferred ratio in each dosage form is; in the case of injections, about 1 (dexamethasone equivalent): 0.05 to 1, advantageously 0.1 to 1; in the case of oral preparations, about 1 (dexamethasone equivalent): 1 to 5, advantageously 1 to 2; and in the case of topical preparations, infusions and implants, about 1 (dexamethasone equivalent): 0.5 to 5, advantageously 0.5 to 2. The `dexamethasone equivalent` is an index number representing the relative clinical effect of any ACH with the effect of dexamethasone being taken as unity.

eczema (in dogs) = assay: Treatment of eczema in dogs with ointment (Example 2); conditions: hydrophilic ointment 0.1%, externally applied
[3] = system: chronic moist dermatitis (in dogs); conditions: oral tablets; Akitaken, 25 kg
Procedure: Diagnosis: Chronic moist dermatitis
Therefore, on the next day one tablet containing 0.5 mg of dexamethasone and 1 mg of TRH tartrate was orally administered. […] As an adjunct to the medication, the dog was placed on a controlled regimen.

For `C[C@H]1C[C@H]2[C@@H]3CCC4=CC(=O)C=C[C@]4(C)[C@@]3(F)[C@@H](O)C[C@]2(C)[C@@]1(O)C(=O)CO` [Betamethasone, 9α-fluoro-16α-methylprednisolone], the Clinical effect [1] is given as 30, the “clinical efficacy / potency compared with dexamethasone” value [2] is given as “as potent as dexamethasone” and the “Equivalent (dexamethasone equivalent)” value [2] is given as 1.

For `C[C@]12C=CC(=O)C=C1CC[C@H]1[C@@H]3C[C@@H](O)[C@](O)(C(=O)CO)[C@@]3(C)C[C@H](O)[C@@]12F` [Triamcinolone, 9α-fluoro-16α-hydroxyprednisolone], the Clinical effect [1] is given as 5.0, the “clinical efficacy / potency compared with dexamethasone” value [2] is given as “one-sixth” and the “Equivalent (dexamethasone equivalent)” value [2] is given as 6.

In the case of `C[C@@H]1C[C@H]2[C@@H]3C[C@H](F)C4=CC(=O)C=C[C@]4(C)[C@H]3[C@@H](O)C[C@]2(C)[C@@]1(O)C(=O)CO` [Paramethasone, 6α-fluoro-16α-methylprednisolone], the Clinical effect [1] is given as 10.0 and the “Equivalent (dexamethasone equivalent)” value [2] is given as 3.

For `C[C@]12C=CC(=O)C=C1CC[C@@H]1[C@@H]2[C@@H](O)C[C@@]2(C)[C@H]1CC[C@]2(O)C(=O)CO` [Prednisolone, prednisolone], the Clinical effect [1] is listed as 4.0 and the “Equivalent (dexamethasone equivalent)” value [2] is listed as 7.5.

In the case of `C[C@@H]1C[C@H]2[C@@H]3CCC4=CC(=O)C=C[C@]4(C)[C@@]3(F)[C@@H](O)C[C@]2(C)[C@@]1(O)C(=O)COP(=O)(O)O` [dexamethasone phosphate], the “therapeutic result” value (eczema (in dogs); 4 dogs with exudative eczema) was “a passing mitigation of inflammation or itchiness; also recorded: substantially no successful therapeutic result was obtained” and the adverse response (eczema (in dogs); dogs with exudative eczema) was “an increase in the amount of exudate”.

For `C[C@]12CCC(=O)C=C1CC[C@@H]1[C@@H]2[C@@H](O)C[C@@]2(C)[C@H]1CC[C@]2(O)C(=O)CO` [Hydrocortisone], the Clinical effect [1] is listed as 1.0 and the “Equivalent (dexamethasone equivalent)” value [2] is listed as 30.

In the case of `C[C@H]1C[C@@H]2[C@H]([C@@H](O)C[C@@]3(C)[C@H]2CC[C@]3(O)C(=O)CO)[C@@]2(C)C=CC(=O)C=C12` [Methylprednisolone, 6α-methylprednisolone], the Clinical effect [1] is given as 5.0 and the “Equivalent (dexamethasone equivalent)” value [2] is given as 6.

In the case of `C[C@@H]1C[C@H]2[C@@H]3CCC4=CC(=O)C=C[C@]4(C)[C@@]3(F)[C@@H](O)C[C@]2(C)[C@@]1(O)C(=O)CO` [Dexamethasone, 9α-fluoro-16α-methylprednisolone], the “therapeutic response” value [3] is given as “failed to elicit a response”, the Clinical effect [1] is given as 30.0 and the “Equivalent (dexamethasone equivalent)” value [2] is given as 1.
